Results from PMC2880392 (Bioorganic & medicinal chemistry letters, 2010).
Where two headings read alike, the source gives them in different places.

Assays:
Type in all cases: cell-based
[1] = tested on: HIV-1 K103N/Y181C variant strain; test: Anti-HIV-1 activity in MT-2 cells, K103N/Y181C variant strain; settings: Human immunodeficiency virus 1, MT2, read-out: K103N/Y181C EC50
[2] = tested on: HIV-1 Y181C variant strain; test: Anti-HIV-1 activity in MT-2 cells, Y181C variant strain; settings: Human immunodeficiency virus 1, MT2, read-out: Y181C EC50
[3] = tested on: IIIB strain of HIV-1 (WT); test: Anti-HIV-1 activity, protection of infected MT-2 cells; settings: for anti-HIV-1 activity in words: wild-type HIV-1, MT-2 cells; for EC50: Human immunodeficiency virus 1, IIIB
[4] = MT2, read-out: Anti-HIV-1 Activity (EC50)

Q: Which results are given for `[O-][n+]1ccc(OCc2ccc(Nc3ncc(Cc4c(F)cccc4F)o3)cc2Cl)cc1` [Compound 3o]?
A: EC50 [1]: > 2.1 µM; EC50 [2]: > 2.7 µM

Q: With `OCc1ccc(Nc2ncc(Cc3c(F)cccc3F)o2)cc1Cl` [Compound 3m] as the compound, how does the “enhancement of WT activity by addition of the chlorine (factor)” value ([3]; 3m versus 3i) read?
A: 15

Q: For `Fc1cccc(F)c1Cc1cnc(Nc2ccc(-c3ccncc3)c(Cl)c2)o1` [Compound 3u], which “anti-HIV-1 activity in words” value [3] is on record?
A: good activity

Q: `Clc1cccc(Cl)c1Cc1nnc(Nc2ccc(COCc3ccsc3)cc2)o1` [Compound 1h] was tested. Which EC50 [3, 4] did it give?
A: > 21 µM

Q: `Cc1ccnc2c1NC(=O)c1cccnc1N2C1CC1` [nevirapine, reference compound] was tested. Which EC50 [1] did it give?
A: > 2.1 µM

Q: How did the EC50 [2] turn out when `N#Cc1ccc(Nc2ncc(Cc3c(F)cccc3F)o2)cc1` [Compound 3p] was run?
A: > 2.7 µM

Q: How did the EC50 [3, 4] turn out when `Clc1cccc(Cl)c1Cc1nnc(Nc2ccc(COCc3ccoc3)cc2)o1` [Compound 1g] was run?
A: > 21 µM

Q: What does the source list for `Fc1cccc(F)c1Cc1cnc(Nc2ccc(-c3cccnc3)c(Cl)c2)o1` [Compound 3v]?
A: anti-HIV-1 activity in words [3]: good activity; EC50 [1]: > 2.1 µM

Q: How did the EC50 [1] turn out when `N#Cc1ccc(Nc2ncc(Cc3c(F)cccc3F)o2)cc1Cl` [Compound 3q] was run?
A: > 2.1 µM

Q: Which results are given for `Clc1cccc(Cl)c1Cc1nnc(Nc2ccc(COCc3ccccc3)cc2)o1` [Compound 1b]?
A: EC50 [3, 4]: > 21 µM; anti-HIV-1 activity in words [3]: inactivity

Q: `O=C1Nc2ccc(Cl)cc2[C@@](C#CC2CC2)(C(F)(F)F)O1` [evafirenz, reference compound] was tested. Which EC50 ([3]; MT2, read-out: WT EC50) did it give?
A: 0.002 µM
